Values quoted from earlier work, collected in patent publication US20230390254A1, “PHARMACEUTICAL COMPOSITIONS OF UBROGEPANT AND PROCESS FOR PREPARATION THEREOF” (Aurobindo Pharma Ltd, priority 2022, published 2023).
Where two headings read alike, the source gives them in different places.

Assays:
[1] = not given; remark: listed apart in the source
[2] = disclosed in U.S. Pat. No. 10,117,836

- solubility (BCS): low solubility
- solubility ([1]; in acetone): freely soluble
- solubility ([1]; in acetonitrile): freely soluble
- solubility ([1]; in ethanol): freely soluble
- solubility ([1]; in methanol): freely soluble
- solubility ([1]; in water): insoluble
- aqueous solubility [2]: poor aqueous solubility
SMILES: C[C@@H]1[C@H](c2ccccc2)C[C@H](NC(=O)c2cnc3c(c2)C[C@@]2(C3)C(=O)Nc3ncccc32)C(=O)N1CC(F)(F)F [Ubrogepant, (3′S)—N-((3 S,5S,6R)-6-methyl-2-oxo-5-phenyl-1-(2,2,2trifluoroethyl)piperidin-3-yl)-2′-oxo-1′,2′,5,7 tetrahydrospiro[cyclopenta[b]pyridine-6,3′-pyrrolo[2,3b]pyridine]-3-carboxamide]
